Earlier results on ten compounds are cited in patent publication US6521608B1, “Vitamin D and its analogs in the treatment of tumors and other hyperproliferative disorders” (Oregon Health & Science University, priority 1998, dated 2003).

“And” between values parts separate entries of the source, which are not always exact repeats. Identical values can stand only once.

In one series the target is T1, VDR (chick intestine) (Gallus gallus, UniProt O42392).
T1 construct: SPC indicates the species of origin of the nVDR where c=chick intestine, r=rat intestine; from tissue; host or cells: chick intestine
T1 sequence (O42392 1-451): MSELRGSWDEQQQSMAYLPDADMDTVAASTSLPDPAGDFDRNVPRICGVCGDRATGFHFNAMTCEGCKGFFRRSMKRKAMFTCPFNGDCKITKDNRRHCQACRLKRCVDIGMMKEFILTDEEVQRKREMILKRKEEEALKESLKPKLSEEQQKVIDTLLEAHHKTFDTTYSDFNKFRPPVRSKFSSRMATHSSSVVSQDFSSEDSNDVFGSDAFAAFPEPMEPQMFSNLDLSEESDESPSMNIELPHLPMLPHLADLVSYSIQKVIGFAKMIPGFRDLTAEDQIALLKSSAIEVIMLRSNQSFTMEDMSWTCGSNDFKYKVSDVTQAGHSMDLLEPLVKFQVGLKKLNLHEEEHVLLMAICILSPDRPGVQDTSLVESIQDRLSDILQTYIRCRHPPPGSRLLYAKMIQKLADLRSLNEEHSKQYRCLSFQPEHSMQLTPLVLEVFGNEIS
The note with it: cited from earlier work.

Another series deals with T2, VDR (rat intestine) (Rattus norvegicus, UniProt P13053).
T2 construct: SPC indicates the species of origin of the nVDR where c=chick intestine, r=rat intestine; from tissue; host or cells: rat intestine
T2 sequence (P13053 1-423): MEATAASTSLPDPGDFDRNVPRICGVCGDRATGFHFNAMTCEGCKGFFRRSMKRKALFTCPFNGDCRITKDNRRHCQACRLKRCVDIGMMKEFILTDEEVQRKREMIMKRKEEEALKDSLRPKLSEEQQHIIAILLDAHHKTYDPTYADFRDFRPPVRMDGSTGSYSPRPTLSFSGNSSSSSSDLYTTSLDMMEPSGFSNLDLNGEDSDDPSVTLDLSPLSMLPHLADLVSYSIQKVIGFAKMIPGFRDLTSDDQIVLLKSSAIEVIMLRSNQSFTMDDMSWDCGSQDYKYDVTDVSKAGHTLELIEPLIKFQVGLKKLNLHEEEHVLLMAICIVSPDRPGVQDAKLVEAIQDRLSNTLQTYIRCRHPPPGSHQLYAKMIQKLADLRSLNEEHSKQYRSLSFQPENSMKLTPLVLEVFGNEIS
The note with it: cited from earlier work.

The conditions of series [1]: relative to calcitriol = 1; cited from earlier work.
In series [2] the target is T3, VDR (MCF-7 human breast cancer cells) (Homo sapiens, UniProt P11473).
T3 construct: m=MCF-7 human breast cancer cells, z=rat osteosarcoma ROS 17/2.8 cells; endogenous in cells; host or cells: MCF-7 human breast cancer cells
T3 sequence (P11473 1-427): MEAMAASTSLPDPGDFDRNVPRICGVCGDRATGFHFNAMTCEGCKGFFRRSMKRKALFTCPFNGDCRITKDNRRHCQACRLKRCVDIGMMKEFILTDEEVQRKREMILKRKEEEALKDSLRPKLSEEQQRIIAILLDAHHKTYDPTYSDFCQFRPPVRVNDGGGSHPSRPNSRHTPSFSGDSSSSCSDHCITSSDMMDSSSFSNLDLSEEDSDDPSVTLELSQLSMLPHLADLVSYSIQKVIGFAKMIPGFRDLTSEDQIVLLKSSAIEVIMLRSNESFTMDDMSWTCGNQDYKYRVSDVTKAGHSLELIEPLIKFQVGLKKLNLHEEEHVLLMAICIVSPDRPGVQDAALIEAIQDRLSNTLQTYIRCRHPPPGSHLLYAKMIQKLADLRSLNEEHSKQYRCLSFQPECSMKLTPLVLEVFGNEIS
The note with it: MCF-7 cells; cited from earlier work.

The target in series [3] is T4, VDR (rat osteosarcoma ROS 17/2.8 cells) (Rattus norvegicus, UniProt P13053).
T4 construct: m=MCF-7 human breast cancer cells, z=rat osteosarcoma ROS 17/2.8 cells; endogenous in cells; host or cells: ROS 17/2.8 rat osteosarcoma cells
T4 sequence (P13053 1-423): T2 sequence (P13053 1-423)
Conditions: cited from earlier work.

In series [4] the test system is locally advanced or cutaneous metastatic breast cancer. Conditions: topical, cited from earlier work.
In the next series the target is T5, VDR (U-937 cells) (Homo sapiens, UniProt P11473).
T5 construct: obtained in human transformed cell lines where h=HL-60 cells, u=U-937; endogenous in cells; host or cells: U-937
T5 sequence (P11473 1-427): T3 sequence (P11473 1-427)
Conditions: cited from earlier work.

For the compound 25-(OH)2-16-ene-23-yne-D3, the “Relative Competitive index for VDR (Calcitriol = 100)” value on VDR (chick intestine) is 0.4 (chick) and <0.4 (chick); at VDR (rat intestine), 0.07 (rat intestine).
In the case of `C=C1/C(=C\C=C2/CCC[C@]3(C)C([C@H](C)CC#CC(C)(C)O)=CC[C@@H]23)C[C@@H](O)C[C@@H]1O` [1,25-(OH)2-16-Ene-23-yne-D3, 1,25-(OH)2-16-ene-23-yne-D3], the “Relative Competitive index for VDR (Calcitriol = 100)” value was 68 (chick) and 70 (chick) and 90 (chick) and 80 (chick) at VDR (chick intestine); 50 (rat intestine) at VDR (rat intestine).
On to `C=C1/C(=C\C=C2/CCC[C@]3(C)C([C@H](C)CCCC(C)(C)O)=CC[C@@H]23)C[C@@H](O)C[C@@H]1O` [1,25-(OH)2-16-Ene-D3, 1,25-(OH)2-16-ene-D3], for which the “Relative Competitive index for VDR (Calcitriol = 100)” value is 165 (chick) at VDR (chick intestine); 240 (rat intestine) and 250 (rat intestine) at VDR (rat intestine).
Consider `C=C1/C(=C\C=C2/CCC[C@]3(C)[C@@H]([C@H](C)CCCC(C)C)CC[C@@H]23)C[C@@H](O)C[C@@H]1O` [1alpha-(OH)-D3, 1α-hydroxyvitamin D3], for which, on VDR (chick intestine), the “Relative Competitive index for VDR (Calcitriol = 100)” value was 0.17 (chick).
In the case of `C=C1C(=CC=C2CC(CF)CC3(C)C2CCC3C(C)CCCC(C)(C)O)CC(O)CC1O` (stereo not drawn) [11α-fluoromethyl-1α,25-(OH)2-D3], the “calcemic index (CI)” value in series [1] is reported as “about 0.1”.
Consider `C=C1/C(=C\C=C2/CCC[C@]3(C)[C@@H]([C@H](C)OCCC(C)(C)O)CC[C@@H]23)C[C@@H](O)C[C@@H]1O` [22-Oxacalcitriol, 22-oxa-1α,25-(OH)2-D3], for which the “Relative Competitive index for VDR (Calcitriol = 100)” value is 100 (MCF-7 cells) in series [2] and 100 (rat osteosarcoma) in series [3]. Besides, the “calcemic index (CI)” value in series [1] is reported as “CI < 0.001”.
As for `C=C1/C(=C\C=C2/CCC[C@]3(C)[C@@H]([C@H](C)/C=C/C=C/C(O)(CC)CC)CC[C@@H]23)C[C@@H](O)C[C@@H]1O` [EB 1089, 24a,26a,27a-trihomo-22,24-diene-1α, 25-(OH)2-D3], the “Relative Competitive index for VDR (Calcitriol = 100)” value at VDR (chick intestine) is on record as 17 (chick).
With `C=C1/C(=C\C=C2/CCC[C@]3(C)[C@@H]([C@@H](C)OCCCC(O)(CC)CC)CC[C@@H]23)C[C@@H](O)C[C@@H]1O` [KH 1060, 20-epi-22-oxa-24a,26a,27a-trihomo-1α,25-(OH)2-D3], in series [1], the “calcemic index (CI)” value is “CI = 1.3”.
On to `C=C1/C(=C\C=C2/CCC[C@]3(C)[C@@H]([C@H](C)/C=C/[C@@H](O)C4CC4)CC[C@@H]23)C[C@@H](O)C[C@@H]1O` [MC 903, 1[…]24S-(OH)2-22-Ene-26,27-dehydro-D3], for which the “patients with a 50% reduction in the bidirectional diameter of the treated lesions” value in series [4] (patients who completed 6 weeks of treatment) was “Three of the 14”. For the same compound, the hypercalcemia entry in series [4] is “hypercalcemia was a complication of the treatment”. Further, the “Relative Competitive index for VDR (Calcitriol = 100)” value on VDR (U-937 cells) is 240 (U-937 cells); on VDR (chick intestine) it was 111 (chick) and 76 (chick) and 100 (chick). In addition, in series [1], the “calcemic index (CI)” value was “CI < 0.01”.
As to `C=C1/C(=C\C=C2/CCC[C@]3(C)[C@@H]([C@H](C)CCCC(C)(C)O)CC[C@@H]23)C[C@@H](O)C[C@@H]1O` [MC 1288, 1,25(OH2-20-epi-D3], the “Relative Competitive index for VDR (Calcitriol = 100)” value on VDR (chick intestine) was 147 (chick) and 120 (chick).
